The text below walks through data of patent US10982252B2, “Bacterial systems for analyzing ubiquitylated polypeptides” (Technology Innovation Momentum Fund (Israel) Limited …, priority 2016, dated 2021).

The subject of assay [1] is Ub. In words: Surface plasmon resonance, immobilized Sc_ENTH and free mono-Ub. The conditions noted are these: mutant complexes; Ub concentrations too low for accurate Kd, high standard errors. It is filed as binding. The protocol:
Surface plasmon resonance: Purified His6-MBP-ENTH or mutants were immobilized on an Ni^+2 chip at a density of ˜800U. Untagged Ub (analyte) was injected at a flow rate of […] in 150 mM NaCl, 10 mM HEPES pH 7.0 and 0.010% poly-sorbate 20 at 24° C.; 500 mM imidazole was used for surface regeneration. To avoid immobilization of aggregated analyte the purified Ub was chromatographed by gel filtration and briefly sonicated immediately before SPR experiments. Data were processed with BioEvaluation and fitting carried out as a single-site-binding model with OriginLab. Standard errors derived from at least three samples.
Finally, to biophysically corroborate the data and to quantify the affinity of the ENTH:Ub complex, Surface Plasmon Resonance (SPR) measurements were performed with immobilized Sc_ENTH and free mono-Ub (FIG. 5I). […] Together, the correlation between the SPR measurements, the genetic and biochemical data provides a rough estimation for the sensitivity of the selection system in monitoring Ub binding.

Assay [2] addresses T1, Siah2 (Homo sapiens, UniProt O43255).
T1 construct: expressed in transfected cells; host or cells: E. coli W3110
T1 sequence (O43255 1-324): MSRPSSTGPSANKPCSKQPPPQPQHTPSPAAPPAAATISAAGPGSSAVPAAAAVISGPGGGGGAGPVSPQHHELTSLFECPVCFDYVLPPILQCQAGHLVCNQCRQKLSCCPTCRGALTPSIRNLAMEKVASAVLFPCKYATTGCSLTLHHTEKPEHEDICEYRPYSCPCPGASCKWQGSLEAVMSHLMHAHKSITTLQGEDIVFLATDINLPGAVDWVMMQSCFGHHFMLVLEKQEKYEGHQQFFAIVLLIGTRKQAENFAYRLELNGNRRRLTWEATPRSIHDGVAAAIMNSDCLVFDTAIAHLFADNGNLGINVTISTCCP
The experiment in a line: Ubiquitination-dependent E. coli growth assay, bacteria addicted to Siah2 self-ubiquitination. As to conditions: only under the addictive conditions (selective media, TRIM); FIG. 2B right. It is filed as cell-based. The protocol:
Ubiquitination-dependent E. coli growth assay: E. coliW3110 (from Ezra Yagil laboratory at TAU) were co-transformed with the pND-Ub and the pCD-Sub plasmids and plated on LB agar supplemented with 34 μg/ml kanamycin and 25 μg/ml streptomycin. 5 ml of liquid LB medium supplemented with the same antibiotic concentrations were inoculated with a single colony and left to grow overnight at 37° C. The culture was harvested and washed twice with 5 ml of minimal Davis medium. The optical density (OD600.) was measured and adjusted to 0.2. Two and a half microliters of the diluted cultures from each sample were spotted on agar Davis plates containing 0, 0.5, 5, 10, 20 or 50 μg/ml of TRIM. The plates were incubated for 2-3 days at 30° C. and photographed with a UV camera in identical conditions. Each spotting assay was repeated at least 6 times.
Most E3-ligases undergo self-ubiquitination^20. The developed selection system thus provides a straightforward tool for their identification and characterization as self-ubiquitination is predicted to confer antibiotic resistance. Yeast Rsp5 and human Siah2, representatives of the HECT and the RING ligases, respectively, were fused to cDHFR. Growth phenotypes were observed under non-permissive conditions, only when all the required ubiquitination components were co-expressed (FIGS. 2A-B). […]

Assay [3] deals with T2, E1 (Triticum aestivum, UniProt P20973).
T2 construct: expressed in transfected cells; host or cells: E. coli
T2 sequence (P20973 1-1051): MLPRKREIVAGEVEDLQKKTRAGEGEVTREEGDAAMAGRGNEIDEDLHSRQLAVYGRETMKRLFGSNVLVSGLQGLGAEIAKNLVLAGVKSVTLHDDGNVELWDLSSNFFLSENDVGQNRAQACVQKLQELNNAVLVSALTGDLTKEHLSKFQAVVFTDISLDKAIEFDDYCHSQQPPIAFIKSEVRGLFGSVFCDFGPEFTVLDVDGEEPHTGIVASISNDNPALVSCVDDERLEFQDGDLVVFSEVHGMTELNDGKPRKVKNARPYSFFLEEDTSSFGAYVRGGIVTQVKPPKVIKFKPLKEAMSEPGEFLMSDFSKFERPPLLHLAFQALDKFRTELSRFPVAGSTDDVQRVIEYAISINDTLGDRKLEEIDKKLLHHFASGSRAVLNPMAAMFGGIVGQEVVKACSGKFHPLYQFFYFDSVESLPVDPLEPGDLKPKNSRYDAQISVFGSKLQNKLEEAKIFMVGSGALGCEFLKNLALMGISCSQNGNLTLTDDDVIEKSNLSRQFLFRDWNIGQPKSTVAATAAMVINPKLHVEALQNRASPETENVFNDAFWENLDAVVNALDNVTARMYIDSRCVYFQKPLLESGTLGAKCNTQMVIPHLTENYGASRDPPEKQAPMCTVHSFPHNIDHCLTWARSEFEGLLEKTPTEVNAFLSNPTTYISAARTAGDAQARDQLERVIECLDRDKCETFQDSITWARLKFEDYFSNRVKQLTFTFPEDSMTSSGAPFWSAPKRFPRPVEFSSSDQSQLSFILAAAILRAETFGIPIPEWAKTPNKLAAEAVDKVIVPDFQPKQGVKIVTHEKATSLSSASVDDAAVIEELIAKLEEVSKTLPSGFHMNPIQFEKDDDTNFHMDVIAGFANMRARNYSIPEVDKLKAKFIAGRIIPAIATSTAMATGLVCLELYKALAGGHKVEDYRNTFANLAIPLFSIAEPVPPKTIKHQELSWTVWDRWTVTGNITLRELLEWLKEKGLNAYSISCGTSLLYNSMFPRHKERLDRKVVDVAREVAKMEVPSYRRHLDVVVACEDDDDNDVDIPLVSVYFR
In words: Selection experiments in solution growth media (96-well, TRIM with or without Pyr-41), Hrs dsUIM ubiquitination. As to conditions: 100 μM Pyr-41, with or without TRIM, n=9; FIG. 3D. The assay is classed as cell-based. The protocol:
Selection experiments in solution growth media: Overnight cultures in LB medium (supplemented with 30 μg/ml kanamycin and 25 μg/ml streptomycin) were harvested and re-suspended in Davis minimal medium. Diluted cells (OD600, 0.2) were grown at 30° C. in 96-well plates containing 0.2 ml Davis medium supplemented with 0, 1, 5, 7, 10 and 12 μg/ml TRIM and with or without 100 μM Pyr-41. Growth rates were monitored by measuring the optical density (OD595) using a microplate spectrophotometer. Doubling time was calculated for early logarithmic growth (OD595 between 0.02 and 0.2). All experiments were performed at least 9 times (n=9).
The selection system stabilizes the dynamic and weak UBD:Ub non-covalent interactions by forming a covalent bond between Ub and Ub-receptor (i.e. ubiquitination) in the bacteria. The present inventors assessed the ability of the system to sense low affinity UBD by tethering the double-sided UIM (dsUIM) of Hrs as substrate^27,28 (FIG. 3A). The structures of Hrs:STAM (also known as ESCRT-0 complex) and particularly its dsUIM:Ub complex, were determined and facilitated detailed molecular assessment^29,30. The E3-independent self-ubiquitination of most Ub-receptors and the promiscuous function of Ubc4/5 subfamily members aided in the analysis. […] Similarly, I44-patch mutant abolished bacterial growth.

The target of assay [4] is Ub (Homo sapiens, UniProt P0CG47). As to conditions: reference 26; read-out: affinity of VHS:Ub complex; cited from earlier work.

As to “Ub R42E, R72E: R42E, R72E double mutant of ubiquitin”, the “estimated affinity, fold lower than that of the wild-type” value in assay [1] is reported as 2.6 fold.
For the molecule `CC1=CC(=O)c2ccccc2C1=O` [menadione], the “growth phenotype in the presence of menadione” value in assay [2] is given as “growth arrest phenotype”.
On to `CCOC(=O)c1ccc(N2NC(=O)/C(=C/c3ccc([N+](=O)[O-])o3)C2=O)cc1` [PYR41], for which, in assay [3], the “effect on bacterial growth (relative growth rates at log phase)” value is reported as “attenuates bacterial growth only in the non-permissive conditions”.

B1: Vps27: VHS domain of Vps27 in VHS:Ub complex (protein)
chain: IHSVDLSDEEKDSIYMFASLVEKMKSRPLNEILEDSKLQNLAQRVFASKARLNYALNDKAQKYNTLIEMNGKISEIMNIYDRLLEQQLQSINLSQQMEKKITGYTTVDISQWHRKEHFEAFQSVAQ
modifications: left off: small tags and cut ends
notes: VHS domain of Vps27 in VHS:Ub complex
Regarding B1, the Kd in assay [4] was 1500 µM.
